Patent US8568994B2, “Method for prenatal diagnosis” (DKFZ Deutsches Krebsforschungszentrum, Stiftung des …, priority 2007, dated 2013)

Test system: Differentiated HPC cells
Assay: Regulated exosomal secretion in human podocytes (Western blot of secreted vesicles for CD24, HSP70, Annexin-1)
Assay type: cell-based
Conditions: MCD 10 μg/ml or 10 mM for 2 hr
Experimental: Cultured HPC (differentiated) were treated with ionomycin (1 μM), MCD (10 mM) or cis-platin (15 μM) for 2 hr. Secreted membrane vesicles were harvested and cells were lysed in lysis buffer. Lysates and isolated vesicles were analyzed by SDS-PAGE followed by Western blot analysis with the indicated antibodies to CD24 and the exosomal marker proteins HSP70 and Annexin-1. Note the low level of constitutive vesicle secretion that is augmented by MCD.
Differentiated HPC cells were treated with ionomycin ([…]), MCD (10 μg/ml) or cisplatin (1 μg/ml) and analyzed the amount of exosomes released.
Human conditionally immortalized podocytes (HPC) were isolated and cultivated as previously described (31). Cells were grown in flasks either at the permissive temperature of 32° C. (in 5% CO2) to promote cell propagation as a cobblestone phenotype (undifferentiated) or at the nonpermissive temperature of 37° C. (in 5% CO2) to inactivate the SV40 T antigen and to allow the cells to differentiate. Prior to stimulation, cells were incubated for 16 h in RPMI 1640 medium, supplemented with 0.1 mg/ml of fatty acid-free bovine serum albumin. HK-2 human proximal tubular epithelial cells were obtained from American Type Culture Collection (ATCC, USA). Human mesangial cells (HMC) were kindly provided by Prof. Dr. Radeke (Depart. of Pharmacology, University of Frankfurt). […]

methyl-beta-cyclodextrin [MCD] was tested, and the “release of CD24 containing exosomes” value was “significantly augmented the release of CD24 containing exosomes”.
